Source: US20100056515A1, “BENZIMIDAZOLE COMPOUNDS” (priority 2006, published 2010)

Tests used:
human CRF receptor = target: T1, human CRF receptor (Homo sapiens, UniProt P34998); assay: Measurement of CRF Binding Inhibitory Rate (receptor binding experiment with 125I-CRF); conditions: human CRF receptor expressing CHO cellular membrane fraction; 50 pM ovine 125I-CRF; 0.05 nM to 10 μM of compound; room temperature 1.5 hr; read-out: IC50 values (CRF binding inhibition)
T1 construct: expressed in transfected cells; host or cells: CHO cells (membrane fraction)
T1 sequence (P34998 24-415): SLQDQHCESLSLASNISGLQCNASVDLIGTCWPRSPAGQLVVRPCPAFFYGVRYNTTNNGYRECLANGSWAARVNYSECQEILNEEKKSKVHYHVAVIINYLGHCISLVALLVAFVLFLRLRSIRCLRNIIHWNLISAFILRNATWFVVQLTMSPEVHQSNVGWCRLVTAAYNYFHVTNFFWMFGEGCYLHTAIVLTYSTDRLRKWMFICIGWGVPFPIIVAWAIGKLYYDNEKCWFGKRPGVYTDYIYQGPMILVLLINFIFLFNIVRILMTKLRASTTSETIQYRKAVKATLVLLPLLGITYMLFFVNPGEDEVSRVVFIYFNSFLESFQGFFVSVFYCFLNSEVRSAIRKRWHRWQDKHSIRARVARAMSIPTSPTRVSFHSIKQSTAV
Method: Measurement of CRF Binding Inhibitory Rate
A receptor binding experiment was carried out using a human CRF receptor expressing CHO cellular membrane fraction and ovine CRF, [^125I]-tyr^0(^125I-CRF). 1000 nM of a test compound was incubated with 1 μg of human CRF receptor expressing CHO cellular membrane fraction and 50 pM of ^125I-CRF in a binding assay buffer (50 mM Tris-HCl, 5 mM EDTA, 10 mM MgCl2, 0.05% CHAPS, 0.1% BSA, 0.5 mM PMSF, 0.1 μg/mL pepstatin, 20 μg/mL leupeptin, pH 7.5). In addition, for measuring nonspecific binding (NSB), 0.1 μM unlabelled human Urocortin was incubated with 5 μg of human CRF receptor expressing CHO cellular membrane fraction and 50 pM of ^125I-CRF in a binding assay buffer. After a binding reaction was carried out at room temperature for 1.5 hr, the membrane was entrapped on a glass filter (UniFilter plate GF-C/Perkin Elmer) by suction filtration using a cell harvester (Perkin Elmer), and washed with ice-cooled 50 mM Tris-HCl (pH 7.5). After drying the glass filter, a liquid scintillation cocktail (Microscinti 0, Perkin Elmer) was added, and the radioactivity of ^125I-CRF remaining on a glass filter was measured using Topcount (Perkin Elmer).
(TB-SB)/(TB-NSB)×100 (SB: radioactivity when a compound is added, TB: maximum binding radioactivity, NSB: nonspecific binding radioactivity) were calculated to obtain binding inhibitory rates under the range of the presence from 0.05 nM to 10 μM of each compounds. The IC50 values were calculated by using GraphPad Prism software.

SMILES	melting point [°C]	IC50 (human CRF receptor) [nM]
CCC(CC)c1ccc(OC)c2nc(Nc3ccc(Cl)cc3Br)n(C)c12 [Example 19, N-(2-Bromo-4-chlorophenyl)-7-(1-ethylpropyl)-4-methoxy-1-methyl-1H-benzimidazol-2-amine]	193 to 195	< 1000
CCC(CC)c1cccc2nc(Oc3c(C)cc(Cl)cc3Cl)n(C)c12 [Example 91, 2-(2,4-Dichloro-6-methylphenoxy)-7-(1-ethylpropyl)-1-methyl-1H-benzimidazole]	91 to 92	< 1000
CCC(CC)c1ccc(Cl)c2nc(Oc3c(Cl)cc(Cl)cc3N3CCOCC3)n(C)c12 [Example 25, 4-Chloro-2-(2,4-dichloro-6-morpholin-4-ylphenoxy)-7-(1-ethylpropyl)-1-methyl-1H-benzimidazole]	155 to 157	< 1000
CCC(CC)c1ccc(OC)c2nc(Oc3ccc(C(C)=O)cc3C)n(C)c12 [Example 6, 1-(4-{[7-(1-Ethylpropyl)-4-methoxy-1-methyl-1H-benzimidazol-2-yl]oxy}-3-methylphenyl)ethanone]	114 to 115	< 1000
CCC(CC)c1ccc(Cl)c2nc(Oc3c(C)cc(S(C)(=O)=O)cc3Cl)n(C)c12 [Example 38, 4-Chloro-2-[2-chloro-6-methyl-4-(methylsulfonyl)phenoxy]-7-(1-ethylpropyl)-1-methyl-1H-benzimidazole]	199 to 200	< 1000
